Where a name gives a salt, the structure may show the parent alone.
Assays:
[1] = Stability of crystal forms under stability test conditions (appearance, XRPD, HPLC); type: physicochemical; settings: for Total impurities: HPLC
Experimental: The samples were placed under the stability conditions shown in the following table, sampling was performed at the corresponding time points, and the samples were subjected to appearance and XRPD tests. […] The stability results obtained are recorded in the following table. […] The samples were placed under the stability test conditions shown in the following table, sampling was performed at different time points, and the samples were subjected to the XRPD test. […] The samples were placed in an open state under the stability test conditions of 40° C./75% RH and 90% RH; and the samples were placed in a closed state at 60° C. in a light box (the test samples in the dark were placed in the same manner as the illumination test samples, and the treatment was performed in the dark). Sampling was performed at different time points, and the samples were subjected to the XRPD test. […] The samples were placed under the stability conditions shown in the following table, sampling was performed at the corresponding time points, and the samples were subjected to appearance and XRPD tests. […] The stability results obtained are recorded in the following table.

[2] = Polymorph screening test, suspension method (crystal form by XRPD after stirring in solvent); type: physicochemical; settings: acetone, tetrahydrofuran
Experimental: (or 50° C.) for 3 days in the dark and centrifuged to remove the supernatant; the resulting precipitate was dried under vacuum (25° C., −0.1 MPa); and the resulting solid was collected and subjected to the XRPD test. The results are as follows:
(or 50° C./80° C.) for 3 days in the dark and centrifuged to remove the supernatant; and the resulting precipitate was dried under vacuum (25° C., −0.1 MPa).
(or 50° C.) for 3 days in the dark and centrifuged to remove the supernatant; and the resulting precipitate was dried under vacuum (25° C., −0.1 MPa).

[3] = 0 d, listed as Phosphate crystal form E

Which results are given for `Cc1cc(Nc2ncc(Cl)c(Nc3ccccc3S(=O)(=O)C(C)C)n2)c(OC(C)C)cc1C1=CCN(C2CCOCC2)CC1` [listing 1 of 2 here]?
Total impurities ([1]; 0 d, listed as Tartrate crystal form C): 0.28%; Total impurities ([1]; 40° C./75% RH, 1 M, listed as Tartrate crystal form C): 0.38%; Total impurities ([1]; 40° C./75% RH, 10 d, listed as Tartrate crystal form C): 0.37%; Total impurities ([1]; 60° C., 1 M, listed as Tartrate crystal form C): 0.47%; Total impurities ([1]; 60° C., 10 d, listed as Tartrate crystal form C): 0.41%; Total impurities ([1]; 90% RH, 1 M, listed as Tartrate crystal form C): 0.59%; Total impurities ([1]; 90% RH, 10 d, listed as Tartrate crystal form C): 0.48%; Total impurities ([1]; Illumination, 5 d, listed as Tartrate crystal form C): 1.01%; Appearance ([1]; Illumination, 5 d and 10 d): Color deepening; Total impurities ([1]; Illumination, 10 d, listed as Tartrate crystal form C): 1.04%

Which Total impurities [1, 3] does the source give for `Cc1cc(Nc2ncc(Cl)c(Nc3ccccc3S(=O)(=O)C(C)C)n2)c(OC(C)C)cc1C1=CCN(C2CCOCC2)CC1` [listing 2 of 2 here] here?
The Total impurities was 1.24%.

And the “Crystal form (XRPD)” value [1, 3]?
The value was “Significant change”.

And the Total impurities ([1]; 40° C./75% RH, 1 M, listed as Phosphate crystal form E)?
Its Total impurities is 1.69%.

And the Total impurities ([1]; 40° C./75% RH, 10 d, listed as Phosphate crystal form E)?
Its Total impurities is 1.79%.

What about the “Crystal form (XRPD)” value ([1]; 40° C./75% RH, 10 d and 1 M, listed as Phosphate crystal form E) of the same compound?
Its value is “Significant change”.

What about the Total impurities ([1]; 60° C., 1 M, listed as Phosphate crystal form E) of the same compound?
The Total impurities was 2.74%.

And the Total impurities ([1]; 60° C., 10 d, listed as Phosphate crystal form E)?
The Total impurities was 3.26%.

What about the “Crystal form (XRPD)” value ([1]; 60° C., 10 d and 1 M, listed as Phosphate crystal form E) of the same compound?
The value was “Significant change”.

What about the Total impurities ([1]; 90% RH, 1 M, listed as Phosphate crystal form E) of the same compound?
Its Total impurities is 3.03%.

And the Total impurities ([1]; 90% RH, 10 d, listed as Phosphate crystal form E)?
Its Total impurities is 2.13%.

What about the “Crystal form (XRPD)” value ([1]; 90% RH, 10 d and 1 M, listed as Phosphate crystal form E) of the same compound?
The value was “Significant change”.

What about the Total impurities ([1]; Illumination, 5 d, listed as Phosphate crystal form E) of the same compound?
The Total impurities was 3.02%.

What about the “Crystal form (XRPD)” value ([1]; Illumination, 5 d and 10 d, listed as Phosphate crystal form E) of the same compound?
The value was “Significant change”.

And the Total impurities ([1]; Illumination, 10 d, listed as Phosphate crystal form E)?
Its Total impurities is 5.00%.

With `Cc1cc(Nc2ncc(Cl)c(Nc3ccccc3S(=O)(=O)C(C)C)n2)c(OC(C)C)cc1C1=CCN(C2CCOCC2)CC1` [one equivalent of tartrate crystal form B] as the compound, how does the “stability of crystal form in solvent, suspension method” value ([2]; n-heptane, or dioxane) read?
The value was “relatively good stability”.

And the “crystal form when stirred in solvent” value ([2]; n-heptane, or dioxane at 40° C.)?
The value was “remained stable”.

Source: patent US20260217692A1 (Ascentage Pharma (Suzhou) Co., Ltd., priority 2023, published 2026)
